Values of other authors as cited in US20010053381A1, “System and method for treating kidney diseases in diabetic and non-diabetic patients” (priority 2000, published 2001).

Experiments:
[1] = test system: patients with type 1 DM
[2] = test system: patients with type 1 DM and diabetic nephropathy

Substance: insulin [CIIIT]
- blood pressure control [1]: improve blood pressure control substantially
- reduction of antihypertensive medication requirements [1]: 46%
- progression of overt diabetic nephropathy ([2]; 37 months, type 1 DM patients): arrest or appreciably reduce the progression
- Creatinine clearance at baseline ([2]; baseline, 31 patients with type 1 DM and diabetic nephropathy): 46.1 ± 3.0 mL/min
- Creatinine clearance at the end of the observation period ([2]; end of observation period (37 months), 31 patients with type 1 DM and diabetic nephropathy): 46.0 ± 3.9 mL/min
- hemoglobin Alc levels, after study period ([2]; value after decline during the study period, P=0.0062): 7.6±0.3%
- hemoglobin Alc levels, start of study period ([2]; value before decline, patients with type 1 DM and diabetic nephropathy): 8.6±0.6%
